# Source: patent US20190015423A1, “REGULATION OF GENE EXPRESSION BY MODULATING PRIMARY CILIA LENGTH” (THE TRUSTEES OF COLUMBIA UNIVERSITY IN THE CITY OF NEW YORK, priority 2016, published 2019)
# Entries after “also recorded” stand apart in the source; their conditions may differ. Where a name gives a salt, the structure may show the parent alone.
# How the values were obtained:
# MLO-Y4 osteocytes [1] = test: Primary cilia length and incidence by immunocytochemistry (acetylated α-tubulin); format: cell-based
# Method: MLO-Y4 osteocytes were cultured on collagen-coated dishes in MEMα (Life Tech) supplemented with 5% fetal bovine serum, 5% calf serum, and 1% penicillin/streptomycin at 37° C. and 5% CO2. […] These agents, or their vehicle control, were applied to cells for 16 h prior to experimentation. MTT, (methylthiazolyldiphenyl-tetrazolium bromide) assay (Sigma) was performed according to manufacturer's protocol to assess cell viability during drug treatments. Phase contrast microscopy with an Olympus CKX41 inverted microscope and 40× objective was used to assess cell morphology.
# For primary cilia imaging and analysis, cells cultured on collagen I-coated glass were fixed in 10% formalin and treated with anti-acetylated α-tubulin primary antibody, 1:1, from a C3B9 hybridoma cell line (Sigma). Cilia were visualised with Alexa-Fluor 488 secondary antibody, 1:1000 (Life Technologies) and imaged with a 100× oil objective on an Olympus Fluoview FV1000 confocal microscope. Nuclei were stained with DAPI (Life Technologies). Cilia length was analyzed using Image J software.
# Gene silencing was performed by siRNA mediated knockdown and compared to scramble siRNA control (Life Technologies). […]
# MLO-Y4 osteocytes [2] = test: Oscillatory fluid flow-induced mRNA expression (COX-2, OPN, AC6), flow vs no flow; format: cell-based
# C57Bl/6 mice = test: Load-induced bone formation: compressive ulnar loading and dynamic histomorphometry; format: in vivo
# Excerpt: All data are shown in reference to the non-loaded contralateral limb as control. […] On day 4-6 the mice were subjected to daily axial compressive ulnar loading. Mice were placed under isoflurane anesthesia and forelimbs were placed between two loading cups controlled by an electromagnetic loading system with feedback control (Bose, ELF 3220). An initial 0.1 N preload was applied, followed by 3 N of cyclic compression applied with a 2 Hz sine wave for 120 cycles, generating a strain gage verified average peak deformation of 1895 μstrain. On day 8, mice were subcutaneously injected with calcein (10 mg/kg) and alizarin red (70 mg/kg) on day 12. Mice were euthanized on day 18 and prepared for dynamic histomorphometric analysis.
# Compressive ulnar loading was applied on days 5-7 to mechanically stimulate bone (3N at 2 Hz for 120 cycles) [9].
# On the final three days of drug or control injection, animals were also subjected to compressive ulnar load at a peak load of 3 N using a 2 Hz sine wave for 120 cycles, as previously described (Temiyasathit, S. et al. PLoS One 7, (2012); Lee, K. L. et al. FASEB J. 28, 1157-1165 (2014)). Contralateral limbs served as a non-loaded control. 2 days following load, mice were treated with 10 mg/kg calcein (Sigma), and 4 days later 70 mg/kg alizarin (Sigma), with mice being sacrificed 6 days later.
# Dynamic histomorphometry was performed as previously described, measuring the amount and separation of calcein and alizarin labels to quantify mineralizing surface (rMS/BS), mineral apposition rate (rMAR), and bone formation rate (rBFR/BS) relative to non-loaded controls (Temiyasathit, S. et al. PLoS One 7, (2012); Lee, K. L. et al. FASEB J. 28, 1157-1165 (2014)). Left and right ulnae were dissected and preserved in ethanol. Samples were then infiltrated with methyl methacrylate, and embedded in methyl methacrylate and benzoyl peroxide. Transverse sections of the ulnar midshaft were imaged on a laser scanning confocal microscope (Olympus Fluoview FV1000). Measurements of outer bone perimeter (OP), single label perimeter (SL), double label perimeter (DL), and double label area (DA) were made in ImageJ. The mineralizing surface relative to outer bone surface (MS/BS), mineral apposition rate (MAR), and bone formation rate (BFS/BS) were calculated as:
# Relative measurements—rMS/BS, rMAR, rBFR/BS—were determined by subtracting non-loaded from loaded ulnae to display differences due to mechanical load.
# MLO-Y4 osteocytes [3] = test: High-throughput drug screening of primary cilia length and incidence; format: cell-based; settings: 10 μM, 16 hours; for Average Length SD Away / Average Incidence SD Away: triplicate, normalized to vehicle control, standard deviation away from the population average
# In short: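 MLO-Y4 osteocytes on collagen I, treated 16 h with 10 μM compound in triplicate, fixed, stained for acetylated α-tubulin and Hoechst, imaged at 40× (4 fields/well); cilia length and incidence normalized to plate DMSO controls. Hits ranked by SD from population mean, requiring ≥40% viability by nuclei count.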
# MC3T3 osteoblasts = test: Flow-induced paracrine signaling: conditioned media of treated osteocytes on osteoblasts (OPN mRNA); format: cell-based; settings: osteocytes treated with tubastatin 5 μM 3-4 hours; 12 hrs flow; osteoblasts cultured 24 hours
# [4] = AC6 siRNA, mechanically stimulated cells
compound,measurement,setting,value
"IFT88 siRNA: siRNA 5′-CCAGAAACAGATGAGGACGACCTTT-3′ (SEQ ID NO:1) (listed as DNA, chemistry not given here)",primary cilia incidence compared to scramble control,"MLO-Y4 osteocytes [1]; 20 μM IFT88 siRNA, 48 hours",lower incidence; also recorded: decreases
same,primary cilia length compared to scramble control,"MLO-Y4 osteocytes [1]; 20 μM IFT88 siRNA, 48 hours",significantly shorter; also recorded: decreased
same,decrease of flow-induced OPN mRNA expression compared to scramble control,"MLO-Y4 osteocytes [2]; IFT88 siRNA, flow 1 h",43%±2%
CCCCCCCCCC(=O)O[C@@H]1[C@@H](C)[C@@]2(O)[C@@H](C=C(CO)C[C@@]3(O)C(=O)C(C)=C[C@@H]23)[C@@H]2C(C)(C)[C@]12OC(=O)CCCCCCCCC [4αPDD],relative bone formation rate (rBFR/BS) compared to vehicle control,"C57Bl/6 mice; 4αPDD 250 μg/kg s.c. 6 consecutive days, load day 4-6, n=3, preliminary study",did not promote a significant increase
"AC6 siRNA: siRNA 5′-CCTGCCACCTACAACAGCTCAATTA-3′ (SEQ ID NO:2) (listed as DNA, chemistry not given here)",cilia incidence,MLO-Y4 osteocytes [1]; AC6 siRNA,no effect; also recorded: Neither AC6 siRNA nor fenoldopam alter cilia incidence
same,decrease in cilia length,MLO-Y4 osteocytes [1]; AC6 siRNA,10%±3%
same,decrease of AC6 expression,MLO-Y4 osteocytes [2]; [4],50%±3%
same,decrease of flow-induced OPN expression,MLO-Y4 osteocytes [2]; [4],30%±3%
CC(=O)O[C@H]1CC[C@@]2(C)[C@@H](CC[C@@H]3[C@@H]2CC(=O)[C@]2(C)[C@@H]4[C@H](C[C@@H]32)O[C@]2(CC[C@@H](C)CO2)[C@H]4C)C1 [HECOGENIN ACETATE],Average Length SD Away,MLO-Y4 osteocytes [3],2.21 SD
CC(=O)O[C@]1(C(C)=O)CC[C@H]2[C@@H]3C[C@H](C)C4=CC(=O)CC[C@]4(C)[C@H]3CC[C@@]21C [Medroxyprogesterone acetate],Average Incidence SD Away,MLO-Y4 osteocytes [3],2.659 SD
Oc1ccc(OCc2ccccc2)cc1 [MONOBENZONE],Average Length SD Away,MLO-Y4 osteocytes [3],1.914 SD
COc1cc2c(cc1OC)[C@@H]1C(=O)c3ccc4c(c3O[C@@H]1CO2)C=CC(C)(C)O4 [DEGUELIN(−)],Average Length SD Away,MLO-Y4 osteocytes [3],2.48 SD
CC[C@@]1(O)C(=O)OCc2c1cc1n(c2=O)Cc2cc3c(CN(C)C)c(O)ccc3nc2-1 [Topotecan hydrochloride hydrate],Average Incidence SD Away,MLO-Y4 osteocytes [3],2.75 SD
same,Average Length SD Away,MLO-Y4 osteocytes [3],3.899 SD
CC(=O)C(=Cc1ccccc1)CC(=O)O [LEVULINIC ACID 3-BENZYLIDENYL-],Average Length SD Away,MLO-Y4 osteocytes [3],2.3613 SD
CCOC(=O)C1=C(C)NC(C)=C(C(=O)OC)C1c1cccc([N+](=O)[O-])c1 (centres unmarked) [Nitrendipine],Average Incidence SD Away,MLO-Y4 osteocytes [3],1.542 SD
CC1(C)Cc2c(-c3ccccc3)c(-c3ccc(Cl)cc3)c(CC(=O)O)n2C1 [Licofelone],Average Incidence SD Away,MLO-Y4 osteocytes [3],1.936 SD
C[C@@H]1C[C@@H]([C@H](O)CC2CC(=O)NC(=O)C2)C(=O)[C@@H](C)C1 [CYCLOHEXIMIDE],Average Length SD Away,MLO-Y4 osteocytes [3],3.609 SD
COC(=O)[C@H]1[C@H]2C[C@@H]3c4[nH]c5cc(OC)ccc5c4CCN3C[C@H]2C[C@@H](OC(=O)c2cc(OC)c(OC)c(OC)c2)[C@@H]1OC [RESERPINE],Average Length SD Away,MLO-Y4 osteocytes [3],1.972 SD
O=C1Nc2ccccc2/C1=C1/Nc2ccccc2/C1=N\O [Indirubin-3′-oxime],Average Length SD Away,MLO-Y4 osteocytes [3],2.475 SD
"CNC(=O)c1cc(Oc2ccc(NC(=O)Nc3ccc(Cl)c(C(F)(F)F)c3)cc2)ccn1 [Sorafenib (Nexavar), Sorafenib]",Average Incidence SD Away,MLO-Y4 osteocytes [3],1.678 SD
same,Average Length SD Away,MLO-Y4 osteocytes [3],1.5 SD
COc1ccc(-c2cc3nccn3c(Nc3ncccc3C(N)=O)n2)cc1OC.Cl.O [BAY 61-3606 hydrochloride hydrate],Average Length SD Away,MLO-Y4 osteocytes [3],1.54 SD
CN(Cc1cnc2nc(N)nc(N)c2n1)c1ccc(C(=O)N[C@@H](CCC(=O)O)C(=O)O)cc1 [Methotrexate],Average Incidence SD Away,MLO-Y4 osteocytes [3],2.424 SD
same,Average Length SD Away,MLO-Y4 osteocytes [3],3.097 SD
same,classification as hit increasing cilia length in the screen,"MLO-Y4 osteocytes [3]; hit = 1.5 standard deviation above population average, at least 40% viability",listed as hits
CN1Cc2ccccc2[C@@H]2c3cccc4[nH]cc(c34)C[C@H]21 [CY 208-243],Average Length SD Away,MLO-Y4 osteocytes [3],2.567 SD
"CN1CCc2c(c3ccccc3n2Cc2ccc(C(=O)NO)cc2)C1 [tubastatin, tubastatin A]","osteoblast osteogenic gene (osteopontin, OPN) expression after conditioned media from flow-stimulated osteocytes",MC3T3 osteoblasts,decreased; also recorded: impaired
same,relative bone formation rate (rBFR),"C57Bl/6 mice; tubastatin 5 mg/kg s.c. 6 consecutive days, load day 4-6, n=3, preliminary study",did not elicit a marked change
same,relative bone formation rate (rBFR),"C57Bl/6 mice; tubastatin 5 mg/kg s.c. 6 consecutive days, load day 4-6, n=3, preliminary study, listed as Tubastatin",slightly decreased
same,decrease in active mineralizing surface (rMS/BS),"C57Bl/6 mice; tubastatin 5 mg/kg s.c. 6 consecutive days, data not shown",over 50%
COc1cc(OC)c(C=C2C(O)=Nc3ccccc32)c(OC)c1 [IC 261],Average Length SD Away,MLO-Y4 osteocytes [3],1.651 SD
Cn1ccc2cc3c(cc21)CCN3C(=O)Nc1cccnc1 [SB 206553 hydrochloride],Average Length SD Away,MLO-Y4 osteocytes [3],1.704 SD
CC(=O)O[C@H]1C[C@@H](OC(C)=O)C(C)(C)[C@@H]2C[C@@H](OC(C)=O)[C@@]3(C)C4=CC(=O)O[C@@H](c5ccoc5)[C@]4(C)CC[C@@H]3[C@@]12C [DEOXYKHIVORIN],Average Length SD Away,MLO-Y4 osteocytes [3],1.681 SD
Cc1nn(-c2ccccc2)c(C)c1/C=N/N1CCN(Cc2ccccc2)CC1 [SANT-1],Average Length SD Away,MLO-Y4 osteocytes [3],1.811 SD
